The text below walks through data of patent US7132252B2, “Methods for detecting the interaction of compounds with cytochrome P450 using optical molecular sensors” (Invitrogen Corporation, priority 1998, dated 2006).

Sequence of CYP2C9 (P11712 whole entry): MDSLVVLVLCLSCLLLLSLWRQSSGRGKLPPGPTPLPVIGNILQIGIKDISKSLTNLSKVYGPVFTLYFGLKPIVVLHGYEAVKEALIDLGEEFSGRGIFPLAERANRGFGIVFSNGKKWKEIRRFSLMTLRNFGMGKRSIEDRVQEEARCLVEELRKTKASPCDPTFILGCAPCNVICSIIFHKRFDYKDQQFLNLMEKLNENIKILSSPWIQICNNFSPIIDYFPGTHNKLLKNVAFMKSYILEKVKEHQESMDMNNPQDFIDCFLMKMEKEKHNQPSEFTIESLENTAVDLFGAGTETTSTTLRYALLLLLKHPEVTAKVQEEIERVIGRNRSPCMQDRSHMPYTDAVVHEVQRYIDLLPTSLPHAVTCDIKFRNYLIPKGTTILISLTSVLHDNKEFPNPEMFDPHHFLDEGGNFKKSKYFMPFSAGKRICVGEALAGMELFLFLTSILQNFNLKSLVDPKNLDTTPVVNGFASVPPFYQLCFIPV

For the first data set, the target named is CYP2C19 (Homo sapiens, UniProt P33261). Put plainly: Kinetic properties of fluorogenic substrates with CYP 2C19. The format is biochemical.
Sequence of CYP2C19 (P33261 whole entry): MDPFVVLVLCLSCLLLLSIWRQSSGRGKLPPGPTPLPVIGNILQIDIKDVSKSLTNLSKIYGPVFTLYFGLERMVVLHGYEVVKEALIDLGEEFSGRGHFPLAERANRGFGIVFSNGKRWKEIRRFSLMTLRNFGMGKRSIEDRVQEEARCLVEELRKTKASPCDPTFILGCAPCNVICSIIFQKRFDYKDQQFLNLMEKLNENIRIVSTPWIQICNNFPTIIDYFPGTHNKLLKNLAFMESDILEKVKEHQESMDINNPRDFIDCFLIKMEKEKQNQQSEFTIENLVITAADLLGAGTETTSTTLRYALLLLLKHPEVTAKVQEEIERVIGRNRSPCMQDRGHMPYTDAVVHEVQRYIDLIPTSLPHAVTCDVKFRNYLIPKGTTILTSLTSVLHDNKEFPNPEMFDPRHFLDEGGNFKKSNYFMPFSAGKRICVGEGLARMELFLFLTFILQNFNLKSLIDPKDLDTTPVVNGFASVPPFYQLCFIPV
Settings: not given
For `COCOc1ccc2cc(C#N)c(=O)oc2c1` [MOMCC], the type of kinetics result was “Michaelis-Menten”.

Staying with this data set, now noted: turnover rate at 1.25 uM substrate; — = too low to quantify.
As to `CCN(CC)Cc1cc(=O)oc2cc(OC)ccc12` [DMMC], the “v (1.25 uM)” value was found to be 0.03 min⁻¹.

Consider `CC(C)Oc1ccc2cc(C#N)c(=O)oc2c1` [IPCC], for which the “v (1.25 uM)” value is 0.027 min⁻¹.

Consider `COCOc1ccc2cc(C#N)c(=O)oc2c1` [MOMCC], for which the “v (1.25 uM)” value was 0.14 min⁻¹.

Still in this data set, the particulars now being: turnover rate at 10 uM substrate; — = too low to quantify.
Regarding `CCN(CC)Cc1cc(=O)oc2cc(OC)ccc12` [DMMC], the “v (10 uM)” value turned out to be 0.23 min⁻¹.

On to `CC(C)Oc1ccc2cc(C#N)c(=O)oc2c1` [IPCC], for which the “v (10 uM)” value was 0.232 min⁻¹.

As to `COCOc1ccc2cc(C#N)c(=O)oc2c1` [MOMCC], the “v (10 uM)” value came out at 0.38 min⁻¹.

A further data set has as its target CYP2C9 (Homo sapiens, UniProt P11712). The experiment in a line: Kinetic properties of fluorogenic substrates with CYP 2C9. In kind it is biochemical.
Settings: not given
Turning to “7-Methoxy-4-trifluoromethylcoumarin [MFC, reference compound]”, the type of kinetics result is “Michaelis-Menten”.

Turning to `COCOc1ccc2cc(C#N)c(=O)oc2c1` [MOMCC], the type of kinetics entry is recorded as “Michaelis-Menten”.

Turning to `COCOc1ccc2c(C(F)(F)F)cc(=O)oc2c1` [MOMFC, 7-Methyloxymethyloxy-4-trifluorocoumarin], the type of kinetics entry is on record as “Michaelis-Menten”.

The data set is the same for the next values; noted with them: turnover rate at 1.25 uM substrate; — = too low to quantify.
“7-Methoxy-4-trifluoromethylcoumarin [MFC, reference compound]”: the “v (1.25 uM)” value turned out to be 0.01 min⁻¹.

In the case of `COCOc1ccc2cc(C#N)c(=O)oc2c1` [MOMCC], the “v (1.25 uM)” value worked out at 0.01 min⁻¹.

Consider `COCOc1ccc2c(C(F)(F)F)cc(=O)oc2c1` [MOMFC, 7-Methyloxymethyloxy-4-trifluorocoumarin], for which the “v (1.25 uM)” value was found to be 0.00 min⁻¹.

Still in this data set, the particulars now being: turnover rate at 10 uM substrate; — = too low to quantify.
In the case of “7-Methoxy-4-trifluoromethylcoumarin [MFC, reference compound]”, the “v (10 uM)” value came out at 0.03 min⁻¹.

For `COCOc1ccc2cc(C#N)c(=O)oc2c1` [MOMCC], the “v (10 uM)” value was found to be 0.07 min⁻¹.

Turning to `COCOc1ccc2c(C(F)(F)F)cc(=O)oc2c1` [MOMFC, 7-Methyloxymethyloxy-4-trifluorocoumarin], the “v (10 uM)” value is 0.07 min⁻¹.

Still in this data set, the particulars now being: — = too low to quantify.
By Km is commonly meant the concentration of substrate that gives half-maximal velocity. A word on the kcat: it is the number of substrate molecules converted per active site and unit of time at saturation. As for “7-Methoxy-4-trifluoromethylcoumarin [MFC, reference compound]”, the Km came to 103 µM and the kcat was 0.0067 s⁻¹.

For the compound `COCOc1ccc2c(C(F)(F)F)cc(=O)oc2c1` [MOMFC, 7-Methyloxymethyloxy-4-trifluorocoumarin], the Km was 14.9 µM and the kcat was determined as 0.0017 s⁻¹.

For the next data set, the target named is T1, CYP 2B6 (Homo sapiens, UniProt P20813).
T1 sequence (P20813 1-491): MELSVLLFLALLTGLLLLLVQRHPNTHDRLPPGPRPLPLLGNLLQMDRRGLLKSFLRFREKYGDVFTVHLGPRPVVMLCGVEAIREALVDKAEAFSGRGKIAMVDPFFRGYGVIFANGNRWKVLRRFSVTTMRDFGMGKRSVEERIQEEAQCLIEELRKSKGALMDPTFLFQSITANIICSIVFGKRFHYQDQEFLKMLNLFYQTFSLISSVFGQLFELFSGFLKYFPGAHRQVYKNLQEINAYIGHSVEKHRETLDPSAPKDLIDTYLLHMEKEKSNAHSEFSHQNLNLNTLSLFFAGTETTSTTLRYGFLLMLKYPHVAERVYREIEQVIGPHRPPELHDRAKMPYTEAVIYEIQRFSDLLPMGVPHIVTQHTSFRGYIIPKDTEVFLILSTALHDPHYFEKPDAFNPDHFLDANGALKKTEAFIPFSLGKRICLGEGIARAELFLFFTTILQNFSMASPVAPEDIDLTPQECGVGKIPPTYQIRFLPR
Put plainly: Kinetic properties of fluorogenic substrates with CYP 2B6. In kind it is biochemical.
Settings: not given
For “7-Methoxy-4-trifluoromethylcoumarin [MFC, reference compound]”, the type of kinetics result was “Michaelis-Menten”.

Consider `COCOc1ccc2c(C(F)(F)F)cc(=O)oc2c1` [MOMFC, 7-Methyloxymethyloxy-4-trifluorocoumarin], for which the type of kinetics entry is listed as “notMichaelis-Menten”.

Staying with this data set, now noted: turnover rate at 1.25 uM substrate; — = too low to quantify.
Consider “7-Methoxy-4-trifluoromethylcoumarin [MFC, reference compound]”, for which the “v (1.25 uM)” value came out at 1.63 min⁻¹.

With `COCOc1ccc2c(C(F)(F)F)cc(=O)oc2c1` [MOMFC, 7-Methyloxymethyloxy-4-trifluorocoumarin], the “v (1.25 uM)” value was found to be 0.54 min⁻¹.

Still in this data set, the particulars now being: turnover rate at 10 uM substrate; — = too low to quantify.
As to “7-Methoxy-4-trifluoromethylcoumarin [MFC, reference compound]”, the “v (10 uM)” value is 2.53 min⁻¹.

For the compound `COCOc1ccc2c(C(F)(F)F)cc(=O)oc2c1` [MOMFC, 7-Methyloxymethyloxy-4-trifluorocoumarin], the “v (10 uM)” value amounted to 0.71 min⁻¹.

Staying with this data set, now noted: — = too low to quantify.
In the case of “7-Methoxy-4-trifluoromethylcoumarin [MFC, reference compound]”, the Michaelis-Menten constant (Km) was found to be 1.4 µM and the catalytic constant (kcat) is 0.0483 s⁻¹.

The target in the next data set is CYP2D6 (Homo sapiens, UniProt P10635). The experiment in a line: Kinetic properties of fluorogenic substrates with CYP 2D6. In kind it is biochemical.
Sequence of CYP2D6 (P10635 whole entry): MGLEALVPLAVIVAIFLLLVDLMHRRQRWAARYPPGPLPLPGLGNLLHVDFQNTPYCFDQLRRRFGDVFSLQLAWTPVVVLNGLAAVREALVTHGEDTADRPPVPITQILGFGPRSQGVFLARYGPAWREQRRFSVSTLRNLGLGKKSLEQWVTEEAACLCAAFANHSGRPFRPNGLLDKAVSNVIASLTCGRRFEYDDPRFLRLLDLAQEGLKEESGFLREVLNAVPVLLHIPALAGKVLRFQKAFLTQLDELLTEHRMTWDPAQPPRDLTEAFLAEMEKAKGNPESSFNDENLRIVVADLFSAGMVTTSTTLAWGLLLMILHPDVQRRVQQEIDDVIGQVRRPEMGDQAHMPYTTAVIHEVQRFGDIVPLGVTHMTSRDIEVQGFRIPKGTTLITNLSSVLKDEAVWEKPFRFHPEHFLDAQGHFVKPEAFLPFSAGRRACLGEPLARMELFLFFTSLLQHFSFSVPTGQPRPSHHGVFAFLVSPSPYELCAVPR
Settings: not given
An excerpt: (respectively, MFC and MR).
As to “7-Methoxy-4-trifluoromethylcoumarin [MFC, reference compound]”, the type of kinetics result is on record as “Michaelis-Menten”.

Staying with this data set, now noted: turnover rate at 1.25 uM substrate; — = too low to quantify.
Turning to “7-Methoxy-4-trifluoromethylcoumarin [MFC, reference compound]”, the “v (1.25 uM)” value came to 0.03 min⁻¹.

Take `CC(C)Oc1ccc2cc(C#N)c(=O)oc2c1` [IPCC]: the “v (1.25 uM)” value worked out at 0.0076 min⁻¹.

The same data set, now with this note: turnover rate at 10 uM substrate; — = too low to quantify.
As to “7-Methoxy-4-trifluoromethylcoumarin [MFC, reference compound]”, the “v (10 uM)” value came to 0.10 min⁻¹.

Turning to `CC(C)Oc1ccc2cc(C#N)c(=O)oc2c1` [IPCC], the “v (10 uM)” value was 0.0378 min⁻¹.

The data set is the same for the next values; noted with them: — = too low to quantify.
Turning to “7-Methoxy-4-trifluoromethylcoumarin [MFC, reference compound]”, the Km came out at 10 µM and the kcat turned out to be 0.005 s⁻¹.

The target of another data set is CYP3A4 (Homo sapiens, UniProt P08684). The experiment in a line: in vitro. Particulars: pH 8, % inhibition, substrate BOMCC, Condition A.
Sequence of CYP3A4 (P08684 whole entry): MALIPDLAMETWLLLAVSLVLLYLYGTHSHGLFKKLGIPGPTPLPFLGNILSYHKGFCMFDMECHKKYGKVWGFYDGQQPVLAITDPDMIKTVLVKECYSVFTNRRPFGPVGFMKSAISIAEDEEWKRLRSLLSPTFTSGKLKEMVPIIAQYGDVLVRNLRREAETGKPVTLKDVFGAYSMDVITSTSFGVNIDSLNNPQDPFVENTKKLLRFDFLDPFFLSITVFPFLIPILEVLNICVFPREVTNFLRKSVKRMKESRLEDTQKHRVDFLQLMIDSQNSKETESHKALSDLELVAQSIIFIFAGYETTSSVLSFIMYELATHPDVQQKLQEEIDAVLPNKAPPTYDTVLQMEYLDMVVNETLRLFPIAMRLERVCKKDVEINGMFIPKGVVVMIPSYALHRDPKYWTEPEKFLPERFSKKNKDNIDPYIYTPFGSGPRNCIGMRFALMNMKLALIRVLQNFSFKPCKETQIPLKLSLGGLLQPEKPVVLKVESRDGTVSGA
What is called inhibition is the relative decrease from the control value, in per cent. For `O=C1NC(=O)C(c2ccccc2)(c2ccccc2)N1` [Diphenylhydantoin], the inhibition at 20 min, 10 µM is -11%.

With `NNC(=O)c1ccncc1` [Isoniazid], the inhibition at 20 min, 10 µM is 59%.

On to `O=C1CN(/N=C/c2ccc([N+](=O)[O-])o2)C(=O)N1` [Nitrofurantoin], for which the inhibition at 20 min, 10 µM is 44%.

For the compound `C=CCOc1ccccc1OCC(O)CNC(C)C` (centres unmarked) [Oxprenolol], the inhibition at 20 min, 10 µM was 7%.

The same data set, now with this note: pH 8, % inhibition, substrate BOMCC, Condition B.
For `O=C1NC(=O)C(c2ccccc2)(c2ccccc2)N1` [Diphenylhydantoin], the inhibition at 40 min, 10 µM came to 21%.

As to `NNC(=O)c1ccncc1` [Isoniazid], the inhibition at 40 min, 10 µM was 48%.

Regarding `O=C1CN(/N=C/c2ccc([N+](=O)[O-])o2)C(=O)N1` [Nitrofurantoin], the inhibition at 40 min, 10 µM worked out at 33%.

As to `C=CCOc1ccccc1OCC(O)CNC(C)C` (centres unmarked) [Oxprenolol], the inhibition at 40 min, 10 µM was 21%.

The same data set, now with this note: pH 8, % inhibition, substrate BOMR, Condition A.
With `O=C1NC(=O)C(c2ccccc2)(c2ccccc2)N1` [Diphenylhydantoin], the inhibition at 20 min, 10 µM is -27%.

With `NNC(=O)c1ccncc1` [Isoniazid], the inhibition at 20 min, 10 µM is -8%.

In the case of `O=C1CN(/N=C/c2ccc([N+](=O)[O-])o2)C(=O)N1` [Nitrofurantoin], the inhibition at 20 min, 10 µM is -19%.

For the compound `C=CCOc1ccccc1OCC(O)CNC(C)C` (centres unmarked) [Oxprenolol], the inhibition at 20 min, 10 µM is -5%.

Still in this data set, the particulars now being: pH 8, % inhibition, substrate BOMR, Condition B.
For `O=C1NC(=O)C(c2ccccc2)(c2ccccc2)N1` [Diphenylhydantoin], the inhibition at 40 min, 10 µM came out at 24%.

In the case of `NNC(=O)c1ccncc1` [Isoniazid], the inhibition at 40 min, 10 µM came to 30%.

As to `O=C1CN(/N=C/c2ccc([N+](=O)[O-])o2)C(=O)N1` [Nitrofurantoin], the inhibition at 40 min, 10 µM is 27%.

As for `C=CCOc1ccccc1OCC(O)CNC(C)C` (centres unmarked) [Oxprenolol], the inhibition at 40 min, 10 µM came out at 13%.

Staying with this data set, now noted: pH 8, % inhibition, substrate DBOMF, Condition A.
For `O=C1NC(=O)C(c2ccccc2)(c2ccccc2)N1` [Diphenylhydantoin], the inhibition at 20 min, 10 µM came out at 21%.

Take `NNC(=O)c1ccncc1` [Isoniazid]: the inhibition at 20 min, 10 µM is -9%.

In the case of `O=C1CN(/N=C/c2ccc([N+](=O)[O-])o2)C(=O)N1` [Nitrofurantoin], the inhibition at 20 min, 10 µM is -9%.

Consider `C=CCOc1ccccc1OCC(O)CNC(C)C` (centres unmarked) [Oxprenolol], for which the inhibition at 20 min, 10 µM was found to be 1%.

The data set is the same for the next values; noted with them: pH 8, % inhibition, substrate DBOMF, Condition B.
As to `O=C1NC(=O)C(c2ccccc2)(c2ccccc2)N1` [Diphenylhydantoin], the inhibition at 40 min, 10 µM was 5%.

Consider `NNC(=O)c1ccncc1` [Isoniazid], for which the inhibition at 40 min, 10 µM was 3%.

For the compound `O=C1CN(/N=C/c2ccc([N+](=O)[O-])o2)C(=O)N1` [Nitrofurantoin], the inhibition at 40 min, 10 µM is -3%.

For the compound `C=CCOc1ccccc1OCC(O)CNC(C)C` (centres unmarked) [Oxprenolol], the inhibition at 40 min, 10 µM came out at 3%.
